Assay results published in US20140294894A1 (priority 2007, published 2014).
Ends that are not written are not given here.

Experiments:
tetanus toxin = test system: tetanus toxin; parameters: species or system mice; settings: mouse, in vivo
TT = test system: TT; parameters: species or system mice; settings: mouse, in vivo
splenocytes = type: cell-based, mice
Spleen cells = experiment: Cytokine assay; type: cell-based, mice
[1] = Experiment 1, following restimulation

Which “protective antibody levels compared to immunization with TT alone” value (tetanus toxin) does the source give for FCIGRL [AT1002] here?
The value was “increased protective antibody levels”.

And the “anti-tetanus IgG subclass titers (IgG1, IgG2a): shift toward a Th1 response” value (TT)?
Its value is “No indication of a shift toward a Th1 response”.

And the “anti-tetanus response (tetanus IgG titer) compared to tetanus toxoid alone” value (TT)?
The value was “significantly enhances the anti-tetanus response in a dose-dependent manner”.

What about the “anti-tetanus response (tetanus IgG titer), effect of higher dose” value (TT) of the same substance?
Its value is “does not increaser the anti-tetanus response”.

What about the “proliferation of spleen cells on restimulation with immunizing antigen (Stimulation Index)” value (splenocytes) of the same substance?
The value was “induces the strongest cell proliferation response”.

And the “IL-5 production compared to groups immunized with toxoid (TT) alone” value (Spleen cells; [1])?
The value was “does not increase production”.

And the “IL-10 production compared to groups immunized with toxoid (TT) alone” value (Spleen cells; [1])?
The value was “does not increase production”.

What about the “IL-6 production by spleen cells compared to groups immunized with toxoid (TT) alone” value (Spleen cells; Experiment 1, restimulation with TT 0-100 μg/ml, FIG. 8A) of the same substance?
The value was “does increase IL-6 production”.

What about the “IFN-γ production by spleen cells compared to groups immunized with toxoid (TT) alone” value (Spleen cells; Experiment 1, restimulation with TT 0-100 μg/ml, FIG. 8B) of the same substance?
Its value is “does not increase IFN-γ production”.

What about the “IL-6 production by spleen cells compared to groups immunized with toxoid (TT) alone” value (Spleen cells; Experiment 2, restimulation with TT 0-100 μg/ml, FIG. 14A) of the same substance?
Its value is “does increase IL-6 production”.
